Measurements published in publication PMC3740347 (Journal of the American Chemical Society, 2013).
Read-outs that look alike come from different tables or passages of the source.

Columns and labels:
[1] = target: T1, GST-VH1 (Vaccinia virus, UniProt P07239)
[2] = target: T1, GST-VH1; settings: pH 7.4

HQYFMpTEYVAT
kcat/KM [1]: 490 M⁻¹ s⁻¹

HQYFMpTEpYVAT
kcat/KM [1]: 3200 M⁻¹ s⁻¹

YDEDFpYDYEF [Peptide 26]
Km [2]: 11 µM
kcat [2]: 2.6 s⁻¹

YNAFAIpTAA [Peptide 2]
fold decrease of VH1 catalytic activity relative to parent peptide [1]: ~ 2 fold
Km ([1]; pH 7.4): > 2000 µM
kcat/KM ([1]; pH 7.4): 93 ± 3 M⁻¹ s⁻¹
